# Measurements from US11090246B2, “Powder hair dye composition” (KAO CORPORATION, priority 2017, dated 2021).
# Test: pKa and color of the azo dyes on dissociation of a proton
# Format: physicochemical
# Source text: Therefore, because the components (B) and (C) coexist with the component (A) in the powder hair dye composition of the present invention, a proton of the component (A) is dissociated and a color of the composition becomes close to one after hair dyeing.
row,SMILES,color assumed by dissociation of a proton
1,"CSc1nsc(/N=N/c2ccc(O)c(Cl)c2)n1 [(A-1), HC Blue 18]",red color
2,"Cn1nccc1/N=N/c1ccc(O)c(Cl)c1 [(A-3), HC Yellow 16]",yellow color
3,"NS(=O)(=O)c1ccc2nsc(/N=N/c3ccc(O)c(Cl)c3)c2c1 [(A-2), HC Red 18]",blue color
